# Data as given in patent US8999957B2, “Heterocyclic compounds as ERK inhibitors” (Merck Sharp & Dohme Corp., priority 2010, dated 2015).
# How the values were obtained:
# ERK protein = ERK protein (Mus musculus, UniProt P63085); assay: TdF (Temperature Dependence Fluorescence, thermal shift) assay for ERK; format: binding; conditions: 3 μM ERK protein, uncertainty estimated ±50%, read-out: Kd TdF
# Excerpt: Assays: TdF Assay for ERK […] The TdF assay was mainly conducted in the 96-well based CHROMO-4 real time fluorescence plate reader (BioRad). The Sypro Orange (Sigma-Aldrich), environmentally sensitive fluorescence dye, was used to monitor the protein folding-unfolding transition. Protein-ligand binding was gauged by the change (or shift) in the unfolding transition temperature (ΔTm) acquired at protein alone with respect to protein in the presence of ligand of interest. Compound of interest was first prepared in DMSO stock (typical concentration: 10 mM). […] Final percentage of DMSO resided in the sample was 2%. The sample plate was heated from 30° C. to 90° C. with thermal ramping rate of 1° C./min. […] The instrument thermal stability was ±0.2° C. The melting temperatures (Tm) for ERK protein under aforementioned conditions occurred at 61.0±0.2° C. and 64.8±02° C. respectively. Theoretical Basis for TdF-Based Ligand Binding Affinity Constant […] In brief, the binding constant of the ligand at the Tm is expressed as below: [formula] where T0 is the midpoint of unfolding for unliganded protein and Tm is the midpoint of unfolding in presence of ligand. [LTm] is free ligand at Tm. The ΔHu and ΔCpu are the enthalpy of unfolding and heat capacity change of unfolding for the protein respectively. Following algorithm derived by Winsor and coworker, the T0, ΔHu and ΔCpu can be determined separately from nonlinear regression fitting the protein alone melting curve: Where F(T) is the observed fluorescence intensity at any temperature T, Yn and Yu are the predicted fluorescence intensities for fully folded and unfolded protein, respectively; mn and mu are slope correction for changes in Yn and Yu with respect to changes in temperature (analogously replace T0 with Tm in the above equation for liganded protein to yield Tm). […] [formula] where ΔHL (T) is the van't Hoff enthalpy of ligand binding at temperature T and ΔCpL is the heat capacity upon ligand binding. For simplicity, the ΔCpL and ΔHL (T) were set to zero and −7 kcal/mol respectively.
# [1] = target: fully phosphorylated, active Mouse ERK2 protein (Mus musculus (Mouse), UniProt P63085); assay: Active ERK2 (aERK) IMAP assay, condition 1; format: biochemical; conditions: aERK assay condition 1, 30 μM ATP
# Protocol: Active ERK2 (aERK) Assay: (Unless Indicated Otherwise, the Data Provided for aERK was obtained using Condition 1)
# Activated ERK2 activity was also determined in the IMAP assay format using the procedure outlined above. […] Reactions proceeded for 30 minutes before termination by addition of 60 μl IMAP detection beads in binding buffer. Plates were read as above after 30 minute binding equilibration.
# fully phosphorylated, active Mouse ERK2 protein, sequence (P63085 whole entry): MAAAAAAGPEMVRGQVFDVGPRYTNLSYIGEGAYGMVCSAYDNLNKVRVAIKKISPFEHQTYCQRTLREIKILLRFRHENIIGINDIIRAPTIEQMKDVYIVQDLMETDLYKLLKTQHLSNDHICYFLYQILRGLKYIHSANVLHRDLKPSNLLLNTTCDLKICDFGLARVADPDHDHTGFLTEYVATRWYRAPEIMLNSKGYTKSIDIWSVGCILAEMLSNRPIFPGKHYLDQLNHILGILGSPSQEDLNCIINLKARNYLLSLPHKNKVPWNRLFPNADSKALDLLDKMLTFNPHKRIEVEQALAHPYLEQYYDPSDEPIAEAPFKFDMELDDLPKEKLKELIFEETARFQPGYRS
# ERK protein, sequence (P63085 2-358 limits assumed): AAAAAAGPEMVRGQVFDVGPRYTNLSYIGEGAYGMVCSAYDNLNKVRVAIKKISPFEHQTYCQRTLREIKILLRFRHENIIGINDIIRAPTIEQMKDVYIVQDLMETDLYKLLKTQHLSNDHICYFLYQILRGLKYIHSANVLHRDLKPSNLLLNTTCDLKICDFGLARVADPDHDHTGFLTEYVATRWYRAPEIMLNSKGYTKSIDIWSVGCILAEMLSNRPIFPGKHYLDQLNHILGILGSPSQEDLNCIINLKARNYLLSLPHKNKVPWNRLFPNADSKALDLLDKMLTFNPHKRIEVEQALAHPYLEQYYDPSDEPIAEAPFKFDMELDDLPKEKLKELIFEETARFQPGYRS
Kd (ERK protein) [nM],IC50 [1] [nM],Structure (SMILES)
0.1,78.5,COc1cccc(F)c1CN1CCC[C@@H](NC(=O)c2ccc3[nH]nc(-c4ccc5nc(C)sc5c4)c3c2)C1
2.33,220,COc1cccc(CN2CCC[C@@H](NC(=O)c3ccc4[nH]nc(-c5ccnc(C)c5)c4c3)C2)n1
0.9,189,COc1cccc(F)c1CN1CCC[C@@H](NC(=O)c2ccc3[nH]nc(-c4ccc(C(C)=O)cc4)c3c2)C1
0.42,39.1,COc1cccc(F)c1CN1CC(NC(=O)c2ccc3[nH]nc(-c4ccnc(C)c4)c3c2)CC(OC)C1 (stereo not drawn)
1.59,114,CCn1cc(-c2n[nH]c3ccc(C(=O)N[C@@H]4CCCN(Cc5c(F)cccc5OC)C4)cc23)cn1
0.03,10.6,COc1cccc(F)c1CN1C[C@H](C)C[C@@H](NC(=O)c2ccc3[nH]nc(-c4ccc5nccn5c4)c3c2)C1
0.02,6.1,COc1cccc(F)c1CN1C[C@@H](C)C[C@@H](NC(=O)c2ccc3[nH]nc(-c4ccc5nn(C)cc5c4)c3c2)C1
1.89,234,Cc1cc(-c2n[nH]c3ccc(C(=O)N[C@@H]4CCCN(Cc5ncccc5F)C4)cc23)ccn1
1.29,224,CC(=O)Nc1cc(-c2n[nH]c3ccc(C(=O)N[C@@H]4CCCN(Cc5c(F)cccc5F)C4)cc23)ccc1O
1.43,15.1,Cc1cc(-c2n[nH]c3ccc(C(=O)N[C@@H]4CCCN(Cc5cc6ccccc6o5)C4)cc23)ccn1
6.5,483,COc1cccc(F)c1CN1CCC[C@@H](NC(=O)c2ccc3[nH]nc(-c4ccc(N)c(OC(C)=O)c4)c3c2)C1
0.97,137,COc1ccsc1CN1CCC[C@@H](NC(=O)c2ccc3[nH]nc(-c4ccnc(C)c4)c3c2)C1
1.95,154,CC(=O)n1cc(CN2CCC[C@@H](NC(=O)c3ccc4[nH]nc(-c5ccnc(C)c5)c4c3)C2)c2ccccc21
3.79,146,COC(=O)C1CC(NC(=O)c2ccc3[nH]nc(-c4ccnc(C)c4)c3c2)CN(Cc2c(F)cccc2OC)C1 (stereo not drawn)
0.53,18.7,Cc1cc(-c2n[nH]c3ccc(C(=O)N[C@@H]4CCCN(Cc5csc6ccccc56)C4)cc23)ccn1
0.052,16.4,CC1CC(NC(=O)c2ccc3[nH]nc(-c4ccncc4)c3c2)CN(Cc2ccccc2F)C1 (stereo not drawn)
0.1,4.02,COc1cccc(F)c1CN1CCC[C@@H](NC(=O)c2ccc3[nH]nc(-c4ccc5cncn5c4)c3c2)C1
10.5,251,O=C(N[C@@H]1CCCN(Cc2nccs2)C1)c1ccc2[nH]nc(-c3ccc4c(c3)CCO4)c2c1
0.13,89,Cc1cc(-c2n[nH]c3ccc(C(=O)N[C@@H]4CCCN(Cc5c(C)cccc5C)C4)cc23)ccn1
0.1,16.4,COc1cccc(F)c1CN1CCC[C@@H](NC(=O)c2ccc3[nH]nc(-c4ccc5nc(C)oc5c4)c3c2)C1
0.01,5.84,COc1cccc(F)c1CN1C[C@@H](C)C[C@@H](NC(=O)c2ccc3[nH]nc(-c4ccc5nccn5c4)c3c2)C1
0.22,4.98,COc1cccc(F)c1CN1CCC[C@@H](NC(=O)c2ccc3[nH]nc(-c4ccnc(C)c4)c3c2)C1
130,923,Cc1cc(-c2n[nH]c3ccc(C(=O)NC4CCCN(Cc5ncccn5)C4)cc23)ccn1 (stereo not drawn)
3.97,90.1,Cc1cc(-c2n[nH]c3ccc(C(=O)N[C@@H]4CCCN(Cc5cc6ccccc6s5)C4)cc23)ccn1

Kd (ERK protein) [nM],IC50 [1] [nM],Structure (SMILES)
20.3,875,Cc1cc(-c2n[nH]c3ccc(C(=O)N[C@@H]4CCCN(Cc5scnc5C)C4)cc23)ccn1
0.39,217,COc1cccc(F)c1CN1C[C@H](C)C[C@@H](NC(=O)c2ccc3[nH]nc(-c4ccc5nn(C)cc5c4)c3c2)C1
2.01,609,COc1cccc(F)c1CN1CCC[C@@H](NC(=O)c2ccc3[nH]nc(-c4cccc(C(C)=O)c4)c3c2)C1
4.12,992,COc1cccc(F)c1CN1C[C@@H](NC(=O)c2ccc3[nH]nc(-c4ccnc(C)c4)c3c2)CCC1=O
20.5,507,Cc1cc(-c2n[nH]c3ccc(C(=O)N[C@@H]4CCCN(Cc5ccncn5)C4)cc23)ccn1
85.2,527,COc1cccc(F)c1CN1C[C@H]2C[C@@H]1[C@H](NC(=O)c1ccc3[nH]nc(-c4ccc5nn(C)cc5c4)c3c1)C2
9.2,591,O=C(N[C@@H]1CCCN(Cc2ccccn2)C1)c1ccc2[nH]nc(-c3ccc4c(c3)CCO4)c2c1
6.6,507,O=C(N[C@@H]1CCCN(Cc2ccccc2F)C1)c1ccc2[nH]nc(-c3ccnc(C(F)(F)F)c3)c2c1
0.6,45.6,COc1cccc(F)c1CN1CCC[C@@H](NC(=O)c2ccc3[nH]nc(-c4ccc5oc(C)nc5c4)c3c2)C1
3.29,881,Cn1cc2cc(-c3n[nH]c4ccc(C(=O)NC5C[C@@H]6C[C@H]5N(Cc5c(F)cccc5F)C6)cc34)ccc2n1 (stereo partly drawn)
0.21,495,COc1cccc(F)c1CN1CCC[C@@H](NC(=O)c2ccc3[nH]nc(-c4ccc5occc5c4)c3c2)C1
0.35,13.3,[2H]C(c1c(F)cccc1OC)N1CCC[C@@H](NC(=O)c2ccc3[nH]nc(-c4ccnc(C)c4)c3c2)C1 (stereo partly drawn)
0.24,155,COc1cccc(F)c1CN1CCC[C@@H](NC(=O)c2ccc3[nH]nc(-c4ccc(C#N)cc4)c3c2)C1
3.33,204,COc1cccc(F)c1CN1C[C@H](C)C[C@@H](NC(=O)c2ccc3[nH]nc(-c4ccnc(C)c4)c3c2)C1
0.4,33.2,O=C(N[C@@H]1CCCN(Cc2ccccc2F)C1)c1ccc2[nH]nc(-c3ccnc(C4CC4)c3)c2c1
4.4,128,Cc1cc(-c2n[nH]c3ccc(C(=O)N[C@@H]4CCCN(C(C)c5ccccc5)C4)cc23)ccn1 (stereo partly drawn)
1.38,286,COc1cccc(F)c1CN1CCC[C@@H](NC(=O)c2ccc3[nH]nc(-c4cccc(NC(C)=O)c4)c3c2)C1
0.51,29.7,Cc1cc(-c2n[nH]c3ccc(C(=O)N[C@@H]4CCCN(Cc5c(F)cccc5F)C4)cc23)ccn1
0.66,64.9,COc1cccc(F)c1CN1CCC[C@@H](NC(=O)c2ccc3[nH]nc(-c4ccc(O)c(NC(C)=O)c4)c3c2)C1
1000,1000,CN(C)c1ccc(CN2CCC[C@@H](NC(=O)c3ccc4[nH]nc(-c5ccc6c(c5)CCO6)c4c3)C2)cc1
0.5,10.7,Cc1cc(-c2n[nH]c3ccc(C(=O)N[C@@H]4CCCN(Cc5ccccc5F)C4)cc23)ccn1
0.34,62.5,[2H]C1(N2CCC[C@@H](NC(=O)c3ccc4[nH]nc(-c5ccnc(C)c5)c4c3)C2)CCc2ccccc21 (stereo partly drawn)
17.7,663,COc1cccc(F)c1CN1C[C@@H](NC(=O)c2ccc3[nH]nc(-c4ccc5nccn5c4)c3c2)CCC1=O
0.26,64.7,COc1cccc(F)c1CN1CC(NC(=O)c2ccc3[nH]nc(-c4ccc5nccn5c4)c3c2)CC(C(=O)O)C1 (stereo not drawn)
